Laboratory results as given in patent US5488051A, “Substituted 5,6-dihydro-5-oxo-1,4-dithiino-(2,3-d)-pyridazine-2,3-dicarbonitriles, compositions containing them and their use as antimicrobials” (The Dow Chemical Company, priority 1994, dated 1996).
≈ marks a conversion by molar mass, not a printed value. Where two headings read alike, the source gives them in different places.

Key:
[1] = test system: Aureobasidium pullulan (Ap); assay: MIC for Aureobasidium pullulan, malt yeast agar; assay type: cell-based, Aureobasidium pullulan ATCC 16622; details: malt yeast agar; 30° C.; 48 hours for yeast and 72 hours for fungi; read-out: Minimum Inhibitory Concentration (MIC), Ap
Method: (§1) The minimum inhibitory concentration (MIC) for the compounds listed in Table I is determined for 9 bacteria, using nutrient agar; and 7 yeast and fungi, using malt yeast agar. A one percent solution of the test compound is prepared in a mixture of acetone and water.
(§2) Malt yeast agar is prepared by adding 3 g yeast extract and 45 g malt agar per liter of deionized water. The specific agar is dispensed in 30 mL aliquots into 25×200 mm test tubes, capped and autoclaved for 15 minutes at 115° C.
(§3) The test tubes containing the malt yeast agar and the nutrient agar are cooled in a water bath until the temperature of the agar is 48° C. Then, an appropriate amount of the one percent solution of the test compound is added (except in the controls where no compound is added) to the respective test tubes so that the final concentrations are zero (0), 1.0, 2.5, 5, 10, 25, 50, 100, 250 and 500 parts per million of the test compound in each of the respective type of agar. The contents of each of the test tubes are then transferred to separate petri plates. After drying for 24 hours, the petri plates containing nutrient agar are inoculated with bacteria and those containing malt yeast agar are inoculated with yeast and fungi.
(§4) The inoculation with the yeast and fungi is accomplished as follows. Cultures of yeast and fungi are incubated for seven days on malt yeast agar at 30° C. These cultures are used to prepare suspensions by the following procedure. A suspension of each organism is prepared by adding 10 mL of sterile saline and 10 microliters of octylphenoxy polyethoxy ethanol to the agar slant of yeast or fungi. The sterile saline/octylphenoxy polyethoxy ethanol solution is then agitated with a sterile swab to suspend the microorganism grown on the slant. Each resulting suspension is diluted into sterile saline (1 part suspension: 9 parts sterile saline). Aliquots of these dilutions are placed in individual wells of Steer's Replicator and petri plates inoculated as previously described. The petri plates are incubated at 30° C. and read after 48 hours for yeast and 72 hours for fungi.
(§5) Table II list the bacteria, yeast and fungi used in the MIC test described above along with their respective American Type Culture Collection (ATCC) identification numbers.

[2] = test system: Pseudomonas aeruginosa (PRD-10); assay: MIC for Pseudomonas aeruginosa PRD-10, nutrient agar; assay type: cell-based, Pseudomonas aeruginosa ATCC 15442; details: 30° C., 48 hours, read-out: Minimum Inhibitory Concentration (MIC), PRD
Method: as §1
(§6) Nutrient agar is prepared at pH 6.8, representing a neutral medium, and at pH 8.2, representing an alkaline medium. The nutrient agars are prepared by adding 23 g of nutrient agar to one-liter of deionized water. In addition, the alkaline medium is prepared by adjusting a 0.04M solution of N-[tris-(hydroxymethyl)methyl]-glycine buffered deionized water with concentrated sodium hydroxide to a pH of 8.5.
as §3
(§7) The inoculation with bacteria is accomplished by using the following procedure. Twenty-four hour-cultures of each of the bacteria are prepared by incubating the respective bacteria in tubes containing nutrient broth for 24 hours at 30° C. in a shaker. Dilutions of each of the 24 hour-cultures are made so that nine separate suspensions (one for each of the nine test bacteria) are made, each containing 10^8 colony forming units (CFU) per mL of suspension of a particular bacteria. Aliquots of 0.3 mL of each of the bacterial suspensions are used to fill the individual wells of Steer's Replicator. For each microbial suspension, 0.3 mL was used to fill three wells (i.e., three wells of 0.3 mL each) so that for the nine different bacteria, 27 wells are filled. The Steer's Replicator is then used to inoculate both the neutral and alkaline pH nutrient agar petri plates.
(§8) The inoculated petri plates are incubated at 30° C. for 48 hours and then read to determine if the test compound which is incorporated into the agar prevented growth of the respective bacteria.
as §5

[3] = test system: Enterobacter aerogenes (Ea); assay: MIC for Enterobacter aerogenes, nutrient agar; assay type: cell-based, Enterobacter aerogenes ATCC 13048; details: Klebsiella aerogenes, nutrient agar, 30° C., 48 hours, read-out: Minimum Inhibitory Concentration (MIC), Ea
Method: as §1, §6, §3, §7, §8, §5

[4] = test system: Saccharomyces cerevisiae; assay: MIC for Saccharomyces cerevisiae, malt yeast agar; assay type: cell-based, Saccharomyces cerevisiae ATCC 4105; details: malt yeast agar, 30° C., 48 hours for yeast, read-out: Minimum Inhibitory Concentration (MIC), Sc
Method: as §1, §2, §3, §4, §5

[5] = test system: Staphylococcus aureus (Sa); assay: MIC for Staphylococcus aureus, nutrient agar; assay type: cell-based, Staphylococcus aureus ATCC 6538; details: 30° C., 48 hours, read-out: Minimum Inhibitory Concentration (MIC), Sa
Method: as §1, §6, §3, §7, §8, §5

[6] = test system: Fusarium oxysporum (Fo); assay: MIC for Fusarium oxysporum, malt yeast agar; assay type: cell-based, Fusarium oxysporum ATCC 48112; details: malt yeast agar; 30° C., 72 hours for fungi; read-out: Minimum Inhibitory Concentration (MIC), Fo
Method: as §1, §2, §3, §4, §5

[7] = test system: Trichoderma viride (Tv); assay: MIC for Trichoderma viride, malt yeast agar; assay type: cell-based, Trichoderma viride ATCC 8678; details: malt yeast agar; 30° C., 72 hours for fungi; read-out: Minimum Inhibitory Concentration (MIC), Tv
Method: as §1, §2, §3, §4, §5

[8] = test system: Escherichia coli (Ec); assay: MIC for Escherichia coli, nutrient agar; assay type: cell-based, Escherichia coli ATCC 11229; details: 30° C., 48 hours, read-out: Minimum Inhibitory Concentration (MIC), Ec
Method: as §1, §6, §3, §7, §8, §5

[9] = test system: Penicillium chrysogenum (Pc); assay: MIC for Penicillium chrysogenum, malt yeast agar; assay type: cell-based, Penicillium chrysogenum ATCC 9480; details: malt yeast agar; 30° C., 72 hours for fungi; read-out: Minimum Inhibitory Concentration (MIC), PC
Method: as §1, §2, §3, §4, §5

[10] = test system: Bacillus subtilis (Bs); assay: MIC for Bacillus subtilis, nutrient agar; assay type: cell-based, Bacillus subtilis ATCC 8473; details: 30° C., 48 hours, read-out: Minimum Inhibitory Concentration (MIC), Bs
Method: as §1, §6, §3, §7, §8, §5

[11] = test system: Candida albicans (Ca); assay: MIC for Candida albicans, malt yeast agar; assay type: cell-based, Candida albicans ATCC 10231; details: malt yeast agar; 30° C., 48 hours for yeast; read-out: Minimum Inhibitory Concentration (MIC), Ca
Method: as §1, §2, §3, §4, §5

[12] = test system: Salmonella choleraesuis; assay: MIC for Salmonella choleraesuis, nutrient agar; assay type: cell-based, Salmonella choleraesuis ATCC 10708; details: Salmonella enterica, 30° C., 48 hours, read-out: Minimum Inhibitory Concentration (MIC), SC
Method: as §1, §6, §3, §7, §8, §5

[13] = test system: Proteus vulgaris (Pv); assay: MIC for Proteus vulgaris, nutrient agar; assay type: cell-based, Proteus vulgaris ATCC 881; details: 30° C., 48 hours, read-out: Minimum Inhibitory Concentration (MIC), Pv
Method: as §1, §6, §3, §7, §8, §5

[14] = test system: Aspergillus niger (An); assay: MIC for Aspergillus niger, malt yeast agar; assay type: cell-based, Aspergillus niger ATCC 16404; details: malt yeast agar; 30° C., 72 hours for fungi; read-out: Minimum Inhibitory Concentration (MIC), An
Method: as §1, §2, §3, §4, §5

[15] = test system: Klebsiella pneumonias (Kp); assay: MIC for Klebsiella pneumonias, nutrient agar; assay type: cell-based, Klebsiella pneumonias ATCC 8308; details: 30° C., 48 hours, read-out: Minimum Inhibitory Concentration (MIC), Kp
Method: as §1, §6, §3, §7, §8, §5

[16] = test system: Pseudomonas aeruginosa (Pa); assay: MIC for Pseudomonas aeruginosa, nutrient agar; assay type: cell-based, Pseudomonas aeruginosa ATCC 10145; details: 48 hours, read-out: Minimum Inhibitory Concentration (MIC), Pa
Method: as §1, §6, §3, §7, §8, §5

Row | SMILES | MIC [1] [µg/mL] | MIC ([2]; pH 6.8, nutrient agar) [µg/mL] | MIC ([2]; pH 8.2, nutrient agar) [µg/mL] | MIC ([3]; pH 6.8) [µg/mL] | MIC ([3]; pH 8.2) [µg/mL] | MIC [4] [µg/mL] | MIC ([5]; pH 6.8, nutrient agar) [µg/mL] | MIC ([5]; pH 8.2, nutrient agar) [µg/mL] | MIC [6] [µg/mL] | MIC [7] [µg/mL] | MIC ([8]; pH 6.8, nutrient agar) [µg/mL] | MIC ([8]; pH 8.2, nutrient agar) [µg/mL] | MIC [9] [µg/mL] | MIC ([10]; pH 6.8, nutrient agar) [µg/mL] | MIC ([10]; pH 8.2, nutrient agar) [µg/mL] | MIC [11] [µg/mL] | MIC ([12]; pH 6.8, nutrient agar) [µg/mL] | MIC ([12]; pH 8.2, nutrient agar) [µg/mL] | MIC ([13]; pH 6.8, nutrient agar) [µg/mL] | MIC ([13]; pH 8.2, nutrient agar) [µg/mL] | other results
1 | N#CC1=C(C#N)Sc2c(cnn(-c3ccccc3)c2=O)S1 [A, 5,6-Dihydro-5-oxo-6-phenyl-1,4-dithiino(2,3-d)pyridazine-2,3-dicarbonitrile] | 25 (≈ 80.6 µM) | 500 (≈ 1610 µM) | > 500 | 250 (≈ 806 µM) | > 500 | < 10 | 25 (≈ 80.6 µM) | < 10 | 25 (≈ 80.6 µM) | 25 (≈ 80.6 µM) | 50 (≈ 161 µM) | > 500 | 25 (≈ 80.6 µM) | 50 (≈ 161 µM) | 500 (≈ 1610 µM) | 25 (≈ 80.6 µM) | 100 (≈ 322 µM) | > 500 | 50 (≈ 161 µM) | > 500 | MIC [14]: 25 µg/mL (≈ 80.6 µM); MIC ([15]; pH 6.8, nutrient agar): 50 µg/mL (≈ 161 µM); MIC ([15]; pH 8.2, nutrient agar): > 500 µg/mL; MIC ([16]; pH 6.8, 30° C.): 250 µg/mL (≈ 806 µM); MIC ([16]; pH 8.2, 30° C.): > 500 µg/mL
2 | N#CC1=C(C#N)Sc2c(cnn(-c3ccc(Cl)cc3)c2=O)S1 [D, 5,6-dihydro-6-(4-chlorophenyl)-5-oxo-1,4-dithiino-(2,3-d)-pyridazine-2,3-dicarbonitrile] | 10 (≈ 29 µM) | 500 (≈ 1450 µM) | > 500 | > 500 | > 500 | 10 (≈ 29 µM) | > 500 | > 500 | 10 (≈ 29 µM) | 25 (≈ 72.5 µM) | 100 (≈ 290 µM) | > 500 | 25 (≈ 72.5 µM) | 25 (≈ 72.5 µM) | 250 (≈ 725 µM) | 10 (≈ 29 µM) | 100 (≈ 290 µM) | > 500 | 100 (≈ 290 µM) | > 500 | MIC [14]: 10 µg/mL (≈ 29 µM); MIC ([15]; pH 6.8, nutrient agar): > 500 µg/mL; MIC ([15]; pH 8.2, nutrient agar): > 500 µg/mL; MIC ([16]; pH 6.8, 30° C.): > 500 µg/mL; MIC ([16]; pH 8.2, 30° C.): > 500 µg/mL
